According to paper PMC9571290, “Preliminary Structure–Activity Relationship Study of the MMV Pathogen Box Compound MMV675968 (2,4-Diaminoquinazoline) Unveils Novel Inhibitors of Trypanosoma brucei brucei” (Molecules, 2022):
Read-outs that look alike come from different tables or passages of the source.

Assays:
Toxoplasma gondii = system: Toxoplasma gondii; parameters: method as in PMID 29133550; conditions: read-out: IC50 against Toxoplasma gondii; cited from earlier work
P. falciparum = system: P. falciparum; parameters: method as in PMID 28674055; conditions: cited from earlier work
Cryptosporidium parvum = system: Cryptosporidium parvum; parameters: method as in PMID 11709300; conditions: read-out: IC50 phenotypic whole parasite testing; cited from earlier work
DHFR [1] = system: DHFR; parameters: method as in PMID 7799402; conditions: read-out: IC50 DHFR Toxoplasma gondii; cited from earlier work
DHFR [2] = system: DHFR; parameters: method as in PMID 7799402; conditions: read-out: IC50 DHFR Pneumocystis carinii; cited from earlier work
in vitro = conditions: African green monkey
Experimental: (§1) The resulting pellet was resuspended and counted in a Neubauer chamber in the presence of trypan blue to exclude nonviable cells colored in blue. Once the cell load was estimated, they were either used for the next passage in a new flask or processed for the cytotoxicity assay.
(§2) Briefly, Vero cells at a density of 10^4 cells per well were plated in 100 µL of complete DMEM and incubated overnight to allow cell attachment. Plates were then controlled under an inverted fluorescence microscope (Lumascope LS520) to ensure adherence, sterility and cell integrity. Thereafter, culture medium from each well was carefully emptied, and plates were filled with 90 µL of fresh complete medium followed by the addition of 10 µL of serial 5-fold dilutions of compound solutions. […] Fluorescence was then read using a Magelan Infinite M200 fluorescence multiwell plate reader (Tecan) with excitation and emission wavelengths of 530 and 590 nm, respectively. The percentage of cell viability was calculated from readouts, and the median cytotoxic concentration (CC50) for each compound was deduced from concentration–response curves using GraphPad Prism 8.0 software as described above. Selectivity indexes were then determined for each test substance as follows: SI = CC50(Vero cells)/IC50(T. brucei brucei).

[3] = system: Cryptosporidium parvum-I DHFR; parameters: method as in PMID 11709300; conditions: in vitro; cited from earlier work
[4] = system: bloodstream forms of Trypanosoma brucei brucei; assay: resazurin-based antitrypanosomal inhibition assay; assay type: cell-based; conditions: for pIC50 T. b. b.: Table 2
Experimental: Parasites were axenically cultivated in sterile vented flasks containing complete Hirumi’s modified Iscove’s medium 9 (HMI-9) [500 mL IMDM (Iscove’s modified Dulbecco’s medium) (Gibco, Waltham, MA, USA) supplemented with 10% (v/v) heat-inactivated fetal bovine serum (HIFBS) (Sigma Aldrich), 10% (v/v) serum plus (Sigma Aldrich), HMI-9 supplement (1 mM hypoxanthine, 0.16 mM thymidine, 50 µM bathocuproine disulfonic acid, 1.5 mM cysteine, 1.25 Mm pyruvic acid, 0.2 mM 2-mercaptoethanol (Sigma Aldrich)), and 1% (v/v) penicillin–streptomycin (Sigma Aldrich) and incubated at 37 °C in a 5% CO2 atmosphere.
The in vitro inhibitory potency of the 400 MMVPB compounds against bloodstream forms of Trypanosoma brucei brucei was evaluated using the resazurin-based inhibition assay as previously described. Briefly, parasites at their mid-logarithmic growth phase were counted, and the cell density was adjusted with fresh complete HMI-9 medium to 2 × 10^5 trypanosomes per mL. Then, 90 µL of parasite suspension was then distributed into the wells of 96-well flat-bottomed plates containing 10 µL of compounds for a final test concentration of 10 µM. […] Each assay plate was set up in duplicate and repeated two times. The percent parasite inhibition was determined for each compound based on fluorescence readouts relative to the mean fluorescence of negative control wells.
y = 100/[1+ 10^(logIC50/99-x)H], where H is the hill coefficient or slope factor [60].

Vero cells = assay: cytotoxicity against Vero cells (resazurin viability assay); conditions: read-out: CC50 Vero; Table 2
Experimental: as §1, §2

[5] = system: kinetoplastids (T. brucei brucei and T. brucei rhodesiense); parameters: method as in MMV Pathogen Box supporting information; conditions: against kinetoplastids; ref MMV Pathogen Box supporting information; read-out: Reported IC50; cited from earlier work
T. b. brucei = system: T. b. brucei; parameters: method as in Duffy et al., 13; conditions: ref Duffy et al., 13; read-out: IC50 against T. b. brucei; cited from earlier work
[6] = system: bloodstream form of Trypanosoma brucei brucei; assay: parasite-killing kinetics and cidal or static effect; assay type: cell-based; conditions: IC90 and IC99; removal at 4 h (10) or 24 h (7), subculture in inhibitor-free medium
Experimental: Thus, they were selected, and their effect at various concentrations was assessed on the proliferation rate of the bloodstream form of Trypanosoma brucei brucei using microscopic cell count. […] After specified exposure time intervals (0, 4, 8, 12, 24, 30, 36, 48, 60, 72 h), the content of each well was harvested and counted on a Neubauer hemacytometer to determine the number of mobile parasites. The obtained values were used to plot the growth curves as parasite density (cells/mL) versus incubation time using GraphPad Prism 8.0 software.
Therefore, the ability of parasites to recover post exposure to inhibitors 10 and 7 was further evaluated. […] After that, the cells were washed three times with fresh complete medium by centrifugation at 2500 rpm for 7 min. Cell pellets were thereafter resuspended in fresh complete culture medium in a 24-well plate and subcultured under the same conditions for 68 h for compound 10 and 48 h for compound 7 to achieve the complete parasite growth pattern. Thereafter, cells were enumerated using the Neubauer cell counter at each time point. The assay was performed in duplicate, and the mean cell counts were plotted […] against time using GraphPad Prism 8.0 to assess the cidal or static effect of inhibitors.

[7] = ferric ion reducing antioxidant power (FRAP); conditions: Fe^3+-reducing activity
Experimental: Iron is one of the vital elements for all parasites, including trypanosomes, as it plays a key role in pathogenesis and the host immune response. Therefore, iron bioavailability reducing agents to the parasite could be potential candidates for drug development against trypanosomiasis. To this end, we determined the capacity of the test compounds to reduce iron from ferric to ferrous status using the method described by Benzie et al.. Briefly, 25 µL of each compound (7 and 10) was added to 25 µL of a solution of Fe^3+ prepared at 1.2 mg/mL in distilled water in a 96-well microplate. The plate was incubated for 15 min at room temperature in darkness, after which 50 µL of ortho-phenanthroline (0.2% in methanol) was added to achieve final compound concentrations ranging from 400 µM to 0.19 µM. Plates were reincubated for 15 min, and the absorbance was measured at 510 nm. Ascorbic acid was used as a positive control and tested at concentrations ranging from 100 to 0.048 μg/mL. The median reducing concentration (RC50) values of compounds were determined through sigmoidal concentration–response curves using GraphPad Prism version 8.0 software.

[8] = Trypanosoma brucei, Table 4, negative log of IC50 in molar, read-out: pIC50 T. b. b. (converted)
[9] = Table 2, MMVPB compounds with known anti-kinetoplastid activity, read-out: IC50 ± SD T. b. b.

For `COc1ccc(OC)c(NCc2ccc3nc(N)nc(N)c3c2Cl)c1` [Analog 1, 2,4-diamino-5-chloro-6-[(2,5-dimethoxyanilino)methyl]quinazoline], the IC50 (Toxoplasma gondii) is listed as 20 nM, the IC50 (P. falciparum) is listed as 70 nM and the IC50 (Cryptosporidium parvum) is listed as 200 nM. The IC50 (DHFR [1]) was 30 nM, the IC50 (DHFR [2]) was 51 nM and the CC50 at 48 h (in vitro) was > 100000 nM. The IC50 [3] was 6.5 nM, the IC50 ([4]; Table 4, analogs of MMV675968, solid material, read-out: IC50 ± SD T. b. b.) was 2600 nM and the IC50 ([4]; Trypanosoma brucei, Table 3, MMVPB compounds with known potency against other diseases, read-out: IC50 ± SD T. b. b.) was 2800 ± 70 nM. The IC50 ([4]; Trypanosoma brucei, Table 3, negative log of IC50 in molar, read-out: pIC50 T. b. b. (converted)) was 2820 nM, the IC50 ([4]; Trypanosoma brucei, Table 4, analogs of MMV675968, solid material, read-out: IC50 ± SD T. b. b.) was 2600 to 2800 nM and the IC50 [4, 8] was 2630 nM.
In the case of `Cc1ncc(-c2ccnc(Nc3ccc(S(C)(=O)=O)cc3)n2)n1C(C)C` [MMV676604], the CC50 (Vero cells) is listed as 8300 ± 1200 nM, the IC50 [5] is listed as 260 nM and the IC50 [4, 9] is listed as 36 ± 1 nM. For the same compound, the “pIC50 T. b. b.” value ([4]; negative log of IC50 in molar) was 7.44.
In the case of `c1ccc(Oc2ccc(-c3cc(N4CCNCC4)[nH]n3)cc2)cc1` [MMV687706], the CC50 (Vero cells) is given as 41000 ± 6500 nM, the IC50 [5] is given as 990 nM and the IC50 [4, 9] is given as 1900 ± 6 nM. The “pIC50 T. b. b.” value ([4]; negative log of IC50 in molar) was 5.72.
In the case of `Cc1nn(C)c(C)c1NS(=O)(=O)c1c(Cl)cc(-c2ccnc(N3CCNCC3)c2)cc1Cl` [MMV688180], the IC50 (T. b. brucei) is given as 10 nM, the CC50 (Vero cells) is given as > 100000 nM and the IC50 [5] is given as < 130 nM. For the same compound, the IC50 [4, 9] was 2.3 nM, the “pIC50 T. b. b.” value ([4]; negative log of IC50 in molar) was 8.64 and the IC50 ([4]; given in nM, read-out: IC50 against T. b. brucei) was 2.3 nM.
In the case of `N=C(N)Nc1ccc(-c2ccc(-c3ccc(N=C(N)N)c(Cl)c3)o2)cc1Cl` [MMV688271], the CC50 (Vero cells) is given as > 100000 nM, the IC50 [5] is given as 600 nM and the IC50 [4, 9] is given as 1070 ± 160 nM. The “pIC50 T. b. b.” value ([4]; negative log of IC50 in molar) was 5.97.
In the case of `NCCN(C(=O)c1ccc(Cl)cc1Cl)c1ccc(OCc2ccc(Cl)cc2)cc1` [MMV688371], the CC50 (Vero cells) is given as 7500 ± 100 nM, the IC50 [5] is given as < 130 nM and the IC50 [4, 9] is given as 1600 ± 100 nM. For the same compound, the “pIC50 T. b. b.” value ([4]; negative log of IC50 in molar) was 5.79.
In the case of `CCCCN(CCCC)c1c(C#N)cc(S(=O)(=O)Nc2ccccc2)cc1C#N` [MMV688467], the CC50 (Vero cells) is given as > 100000 nM, the IC50 [5] is given as 300 nM and the IC50 [4, 9] is given as 3100 ± 500 nM. For the same compound, the “pIC50 T. b. b.” value ([4]; negative log of IC50 in molar) was 5.50.
In the case of `N=C(N)c1ccc(-c2cc(-c3ccccc3)on2)cc1` [MMV688514], the CC50 (Vero cells) is given as 17000 ± 2500 nM, the IC50 [5] is given as 4060 nM and the IC50 [4, 9] is given as 3200 ± 300 nM. For the same compound, the “pIC50 T. b. b.” value ([4]; negative log of IC50 in molar) was 5.49.
For `Cc1cccnc1NC(=O)c1cccc(OCc2c(C)noc2C)c1` [MMV688793], the CC50 (Vero cells) is listed as > 100000 nM, the IC50 [5] is listed as 2070 nM and the IC50 [4, 9] is listed as 360 ± 40 nM. The “pIC50 T. b. b.” value ([4]; negative log of IC50 in molar) was 6.44.
For `O=C(NCCc1ccn(-c2ccccc2)n1)C1CCCCC1` [MMV688795], the CC50 (Vero cells) is given as > 100000 nM, the IC50 [5] is given as 150 nM and the IC50 [4, 9] is given as 350 ± 20 nM. For the same compound, the “pIC50 T. b. b.” value ([4]; negative log of IC50 in molar) was 6.45.
For `O=C(NCc1nnc2n1CCCCC2)c1ccc(-c2ccc(F)cc2)o1` [MMV688796], the CC50 (Vero cells) is given as > 100000 nM, the IC50 [5] is given as 100 nM and the IC50 [4, 9] is given as 30 ± 10 nM. The “pIC50 T. b. b.” value ([4]; negative log of IC50 in molar) was 7.52.
For `CC1CCCCN1C(=O)NCCc1coc(-c2ccc(F)cc2)n1` (stereo not shown) [MMV688797], the CC50 (Vero cells) is listed as > 100000 nM, the IC50 [5] is listed as 130 nM and the IC50 [4, 9] is listed as 60 ± 20 nM. The “pIC50 T. b. b.” value ([4]; negative log of IC50 in molar) was 7.22.
For `COc1ccc(S(=O)(=O)Nc2ccc(CN3CCN(C(=O)c4cccc(C#N)c4)CC3)cc2)cc1` [MMV689029], the CC50 (Vero cells) is listed as > 100000 nM, the IC50 [5] is listed as 500 nM and the IC50 [4, 9] is listed as 1300 ± 600 nM. For the same compound, the “pIC50 T. b. b.” value ([4]; negative log of IC50 in molar) was 5.88.
In the case of `CC(=O)Nc1ccc(-c2noc(CC3CCCN(Cc4cccc(F)c4C)C3)n2)cc1` (stereo not shown) [MMV689061], the CC50 (Vero cells) is listed as > 100000 nM, the IC50 [5] is listed as 32300 nM and the IC50 [4, 9] is listed as 1900 ± 100 nM. The “pIC50 T. b. b.” value ([4]; negative log of IC50 in molar) was 5.72.
In the case of `COc1ccc(C2=NN(C3CCCCCC3)C(=O)[C@@H]3CC=CC[C@H]23)cc1OCCCCOc1ccc(-c2nn[nH]n2)cc1` [MMV690027], the CC50 (Vero cells) is listed as > 100000 nM, the IC50 [5] is listed as 20 nM and the IC50 [4, 9] is listed as 2800 ± 70 nM. The “pIC50 T. b. b.” value ([4]; negative log of IC50 in molar) was 5.55.
In the case of `N=C(N)c1ccc(OCCCCCOc2ccc(C(=N)N)cc2)cc1` [Pentamidine, reference compound], the CC50 at 48 h (in vitro) is reported as > 100000 nM, the “cidal or static effect after inhibitor removal” value [6] is reported as “static profile” and the IC50 ([4]; Trypanosoma brucei, Table 1, reference drugs included in MMVPB, read-out: IC50 ± SD T. b. b.) is reported as 2 ± 0.3 nM. For the same compound, the IC50 ([4]; Trypanosoma brucei, Table 1, negative log of IC50 in molar, read-out: pIC50 T. b. b. (converted)) was 2 nM and the IC50 [4, 8] was 2.24 nM.
For `O=C1O[C@H]([C@@H](O)CO)C(O)=C1O` [ascorbic acid, reference compound], the “median reducing concentration (RC50)” value [7] was 165 µM.
